According to patent US7368477B2, “Benzofuranyl alkanamine derivatives and uses thereof” (Wyeth, priority 2005, dated 2008):
Like-named read-outs stand apart in the source and are kept apart here.

Tests used:
[1] = biological target: T1, human 5-hydroxytryptamine-2C (h5-HT2C) receptor (Homo sapiens, UniProt P28335); experiment: [125I]DOI binding to membranes of CHO cells expressing the human 5-HT2C receptor
T1 construct: expressed in transfected cells; host or cells: CHO (Chinese Hamster Ovary) cells; membrane preparation
T1 sequence (P28335 33-458): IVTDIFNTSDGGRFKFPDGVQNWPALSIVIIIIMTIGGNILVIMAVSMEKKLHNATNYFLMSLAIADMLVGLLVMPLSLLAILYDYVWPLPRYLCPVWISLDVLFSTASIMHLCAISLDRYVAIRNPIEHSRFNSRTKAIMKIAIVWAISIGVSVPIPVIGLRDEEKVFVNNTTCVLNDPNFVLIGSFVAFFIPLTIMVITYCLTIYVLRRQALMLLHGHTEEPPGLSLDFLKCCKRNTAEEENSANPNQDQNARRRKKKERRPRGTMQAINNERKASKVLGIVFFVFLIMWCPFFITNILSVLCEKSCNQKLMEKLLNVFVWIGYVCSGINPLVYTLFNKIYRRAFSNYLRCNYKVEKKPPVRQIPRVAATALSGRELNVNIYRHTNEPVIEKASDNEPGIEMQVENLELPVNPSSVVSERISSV

human 5-HT2C receptor = biological target: T2, human 5-HT2C receptor (Homo sapiens, UniProt P28335); experiment: Calcium mobilization (FLIPR) in CHO cells stably expressing the human 5-HT2C receptor; assay type: cell-based; conditions: for Emax: CHO, read-out: 5-HT2C Function EMax (%); for EC50: calcium mobilization, h5-HT2C CHO cells, read-out: 5-HT2C Function EC50
T2 sequence (P28335 33-458): T1 sequence (P28335 33-458)

[2] = read-out: 5-HT2C Binding Ki avg

Row | SMILES | melting point | Ki [1, 2] [nM] | Emax (human 5-HT2C receptor) [%] | EC50 (human 5-HT2C receptor) [nM] | Ki ([1]; reference compounds, [125I]DOI displacement, h5-HT2C CHO membranes, read-out: Ki (95% confidence interval)) [nM] | Kd ([1]; saturation binding with increasing concentrations of [125I]DOI, read-out: dissociation constant, KD) [nM]
1 | Cc1ccc(Cl)cc1-c1cc(F)cc2cc(CN)oc12 [Compound 14, 1-[7-(5-chloro-2-methylphenyl)-5-fluoro-1-benzofuran-2-yl]methanamine] | 208 to 210 °C | 1 to 10 | 80 | 10 to 200 | – | –
2 | NCc1cc2cc(Cl)cc(-c3ccccc3Cl)c2o1 [Compound 3, {[5-chloro-7-(2-chlorophenyl)-1-benzofuran-2-yl]methyl}amine] | – | – | 100 | < 10 | – | –
3 | NCc1cc2cc(F)cc(-c3ccc(Cl)cc3Cl)c2o1 [Compound 9, {[7-(2,4-dichlorophenyl)-5-fluoro-1-benzofuran-2-yl]methyl}amine] | – | 0.01 to 1 | 90 | < 10 | – | –
4 | Cc1ccccc1-c1cc(F)cc2cc(CN)oc12 [Compound 8, {[5-fluoro-7-(2-methylphenyl)-1-benzofuran-2-yl]methyl}amine] | – | 1 to 10 | 90 | < 10 | – | –
5 | CSc1ccc2c(c1)C(N1CCN(C)CC1)Cc1ccccc1S2 (stereo not shown) [Methiothepin, reference compound] | – | – | – | – | 4.6 | –
6 | NCc1cc2cc(Cl)cc(-c3ccccc3F)c2o1 [Compound 2, {[5-chloro-7-(2-fluorophenyl)-1-benzofuran-2-yl]methyl}amine] | – | 1 to 10 | 80 | 200 to 2000 | – | –
7 | Cc1ccccc1-c1cc(Cl)cc2cc(CN)oc12 [Compound 4, {[5-chloro-7-(2-methylphenyl)-1-benzofuran-2-yl]methyl}amine] | – | – | 90 | 10 to 200 | – | –
8 | NCc1cc2cc(F)cc(-c3c(Cl)cccc3Cl)c2o1 [Compound 7, {[7-(2,6-dichlorophenyl)-5-fluoro-1-benzofuran-2-yl]methyl}amine] | – | 0.01 to 1 | 100 | < 10 | – | –
9 | Cc1cc(Cl)ccc1-c1cc(F)cc2cc(CN)oc12 [Compound 13, 1-[7-(4-chloro-2-methylphenyl)-5-fluoro-1-benzofuran-2-yl]methanamine] | 172 to 174 °C | 1 to 10 | 80 | 10 to 200 | – | –
10 | Cc1ccccc1-c1cccc2cc(CN)oc12 [Compound 12, 1-[7-(2-methylphenyl)-1-benzofuran-2-yl]methanamine] | 222 to 224 °C | 1 to 10 | 70 | < 10 | – | –
11 | NCc1cc2cc(F)cc(-c3cc(Cl)ccc3Cl)c2o1 [Compound 11, 1-[7-(2,5-dichlorophenyl)-5-fluoro-1-benzofuran-2-yl]methanamine] | 245 to 247 °C | 0.01 to 1 | 70 | < 10 | – | –
12 | NCc1cc2cc(Cl)cc(-c3ccccc3C(F)(F)F)c2o1 [Compound 6, ({5-chloro-7-[2-(trifluoro methyl)phenyl]-1-benzofuran-2-yl}methyl)amine] | 215 to 218 °C (dec.) | 10 to 100 | 90 | 200 to 2000 | – | –
13 | COc1ccccc1-c1cc(Cl)cc2cc(CN)oc12 [Compound 5, {[5-chloro-7-(2-methoxyphenyl)-1-benzofuran-2-yl]methyl}amine] | – | 1 to 10 | 90 | 10 to 200 | – | –
14 | COc1cc(CC(C)N)c(OC)cc1I (stereo not shown) [[^125I] DOI, reference compound] | – | – | – | – | – | 0.4
15 | NCc1cc2cccc(-c3c(Cl)cccc3Cl)c2o1 [Compound 15, 1-[7-(2,6-dichlorophenyl)-1-benzofuran-2-yl]methanamine] | 260 to 262 °C | 0.01 to 1 | 90 | < 10 | – | –
16 | COc1ccccc1-c1cc(F)cc2cc(CN)oc12 [Compound 10, 1-[5-fluoro-7-(2-methoxyphenyl)-1-benzofuran-2-yl]methanamine] | 128 to 130 °C | 1 to 10 | 80 | 10 to 200 | – | –
17 | NCc1cc2ccc(F)c(-c3ccccc3Cl)c2o1 [Compound 17, 1-[7-(2-chlorophenyl)-6-fluoro-1-benzofuran-2-yl]methanamine] | > 250 °C | – | – | – | – | –
18 | NCc1cc2ccc(Cl)c(-c3ccccc3Cl)c2o1 [Compound 16, 1-[6-chloro-7-(2-chlorophenyl)-1-benzofuran-2-yl]methanamine] | 208 to 210 °C | 0.01 to 1 | 90 | < 10 | – | –
19 | I.NCc1cc2cc(Cl)cc(-c3ccccc3)c2o1 [Compound 1, [(5-chloro-7-phenyl-1-benzofuran-2-yl)methyl]amine] | > 225 °C | 10 to 100 | 70 | 200 to 2000 | – | –
